From patent US6277847A, “Herbicidal isoindolinonyl-and 3,4-dihydroisoquinolonyl-substituted heterocycles” (FMC Corporation, priority 2000, dated 2001)

Key:
Type in all cases: in vivo
[1] = tested on: soybean (Glycine max -- var. Winchester); experiment: pre-emergence herbicidal activity, soybean; conditions: 1 kg/Ha, about fourteen days, read-out: pre-emergence herbicidal activity (% control) SOY
In short: (§1)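 Seeds sown in flats of soil mix were sprayed pre-emergence with test compound in water/acetone at 1 kg/Ha. Flats were held about fourteen days beside untreated controls, then phytotoxicity was scored as percent control (0 = no effect, 100 = complete control).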

[2] = tested on: morningglory (Ipomea lacunosa or Ipomea hederacea); experiment: post-emergence herbicidal activity, morningglory; conditions: Ipomoea, 1 Kg/Ha, about fourteen days, read-out: post-emergence herbicidal activity (% control) IPOSS
In short: (§2)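 Percent control (0–100) was rated about fourteen days after spraying of emerged, germinated plants in flats with compound dissolved in water/acetone at 1 Kg/Ha.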

[3] = tested on: morningglory (Ipomea lacunosa or Ipomea hederacea); experiment: pre-emergence herbicidal activity, morningglory; conditions: Ipomoea, 1 kg/Ha, about fourteen days, read-out: pre-emergence herbicidal activity (% control) IPOSS
In short: as §1

[4] = tested on: velvetleaf (Abutilon theophrasti); experiment: post-emergence herbicidal activity, velvetleaf; conditions: 1 Kg/Ha, about fourteen days, read-out: post-emergence herbicidal activity (% control) ABUTH
In short: as §2

[5] = tested on: green foxtail (Setaria viridis); experiment: post-emergence herbicidal activity, green foxtail; conditions: 1 Kg/Ha, about fourteen days, read-out: post-emergence herbicidal activity (% control) SETVI
In short: as §2

[6] = tested on: common chickweed (Stellaria media); experiment: pre-emergence herbicidal activity, chickweed; conditions: 1 kg/Ha, about fourteen days, read-out: pre-emergence herbicidal activity (% control) STEME
In short: as §1

[7] = tested on: velvetleaf (Abutilon theophrasti); experiment: pre-emergence herbicidal activity, velvetleaf; conditions: 1 kg/Ha, about fourteen days, read-out: pre-emergence herbicidal activity (% control) ABUTH
In short: as §1

[8] = tested on: Johnsongrass (Sorghum halepense); experiment: pre-emergence herbicidal activity, johnsongrass; conditions: 1 kg/Ha, about fourteen days, read-out: pre-emergence herbicidal activity (% control) SORHA
In short: as §1

[9] = tested on: blackgrass (Aloepecurus myosuroides); experiment: post-emergence herbicidal activity, blackgrass; conditions: Alopecurus myosuroides, 1 Kg/Ha, about fourteen days, read-out: post-emergence herbicidal activity (% control) ALOMY
Method: This example sets forth the methods of herbicidal testing conducted on the specific compounds set forth below. Specifically, the compounds referenced below were tested for pre- and post-emergence herbicidal activity using a variety of crops and weeds. The test plants include, but are not limited to, soybean (Glycine max -- var. Winchester), field corn (Zea mays var. Pioneer 3732), wheat (Triticum aestivum var. Lew), morningglory (Ipomea lacunosa or Ipomea hederacea), velvetleaf (Abutilon theophrasti), green foxtail (Setaria viridis), Johnsongrass (Sorghum halepense), blackgrass (Aloepecurus myosuroides), common chickweed (Stellaria media), and common cocklebur (Xanthium strumarium L.).
In the post-emergence test, seeds of the plant species named above were planted in flats containing the appropriate soil mixture where they were maintained to allow the seeds to germinate. When the plants in these flats reached the proper stage of growth, flats for the pre-emergence tests were planted in a like manner. The flats containing the post-emergence and pre-emergence test plant species were then sprayed with an appropriately concentrated water/acetone solution of test compound. Once treated the flats were maintained, along with untreated controls, for about fourteen days. All treated plants were then examined for phytotoxicity, which was expressed as percent control where 0 is no effect and 100 is complete control. Effective rates of application for the compounds of the present invention range from 0.001 to 3 kg/ha, more likely from […] to 1 Kg/ha.
Herbicidal activity data at selected application rates are in Tables 4 and 5. The test compounds are identified by numbers correspond to those in Table 1.
SOY is soybean, WHT is wheat, CRN is corn, ABUTH is velvetleaf, IPOSS is
morningglory, STEME is chickweed, XANPE is cocklebur, ALOMY is blackgrass,
Rate of application of test compound is 1 Kg/Ha. The definitions as shown under Table 4 apply to Table 5.

[10] = tested on: Johnsongrass (Sorghum halepense); experiment: post-emergence herbicidal activity, johnsongrass; conditions: 1 Kg/Ha, about fourteen days, read-out: post-emergence herbicidal activity (% control) SORHA
In short: as §2

[11] = tested on: common cocklebur (Xanthium strumarium L.); experiment: post-emergence herbicidal activity, cocklebur; conditions: 1 Kg/Ha, about fourteen days, read-out: post-emergence herbicidal activity (% control) XANPE
In short: as §2

[12] = tested on: wheat (Triticum aestivum var. Lew); experiment: pre-emergence herbicidal activity, wheat; conditions: 1 kg/Ha, about fourteen days, read-out: pre-emergence herbicidal activity (% control) WHT
In short: as §1

[13] = tested on: field corn (Zea mays var. Pioneer 3732); experiment: pre-emergence herbicidal activity, corn; conditions: 1 kg/Ha, about fourteen days, read-out: pre-emergence herbicidal activity (% control) CRN
In short: as §1

[14] = tested on: wheat (Triticum aestivum var. Lew); experiment: post-emergence herbicidal activity, wheat; conditions: 1 Kg/Ha, about fourteen days, read-out: post-emergence herbicidal activity (% control) WHT
In short: as §2

[15] = tested on: common chickweed (Stellaria media); experiment: post-emergence herbicidal activity, chickweed; conditions: 1 Kg/Ha, about fourteen days, read-out: post-emergence herbicidal activity (% control) STEME
In short: as §2

[16] = tested on: common cocklebur (Xanthium strumarium L.); experiment: pre-emergence herbicidal activity, cocklebur; conditions: 1 kg/Ha, about fourteen days, read-out: pre-emergence herbicidal activity (% control) XANPE
In short: as §1

[17] = tested on: soybean (Glycine max -- var. Winchester); experiment: post-emergence herbicidal activity, soybean; conditions: 1 Kg/Ha, about fourteen days, read-out: post-emergence herbicidal activity (% control) SOY
In short: as §2

[18] = tested on: green foxtail (Setaria viridis); experiment: pre-emergence herbicidal activity, green foxtail; conditions: 1 kg/Ha, about fourteen days, read-out: pre-emergence herbicidal activity (% control) SETVI
In short: as §1

[19] = tested on: field corn (Zea mays var. Pioneer 3732); experiment: post-emergence herbicidal activity, corn; conditions: 1 Kg/Ha, about fourteen days, read-out: post-emergence herbicidal activity (% control) CRN
In short: as §2

[20] = tested on: blackgrass (Aloepecurus myosuroides); experiment: pre-emergence herbicidal activity, blackgrass; conditions: Alopecurus myosuroides, 1 kg/Ha, about fourteen days, read-out: pre-emergence herbicidal activity (% control) ALOMY
In short: as §1

Row | Structure (SMILES) | activity at 1000 g/ha [1] [%] | activity at 1000 g/ha [2] [%] | activity at 1000 g/ha [3] [%] | activity at 1000 g/ha [4] [%] | activity at 1000 g/ha [5] [%] | activity at 1000 g/ha [6] [%] | activity at 1000 g/ha [7] [%] | activity at 1000 g/ha [8] [%] | activity at 1000 g/ha [9] [%] | activity at 1000 g/ha [10] [%] | activity at 1000 g/ha [11] [%] | activity at 1000 g/ha [12] [%] | activity at 1000 g/ha [13] [%] | activity at 1000 g/ha [14] [%] | activity at 1000 g/ha [15] [%] | activity at 1000 g/ha [16] [%] | activity at 1000 g/ha [17] [%] | activity at 1000 g/ha [18] [%] | activity at 1000 g/ha [19] [%] | activity at 1000 g/ha [20] [%]
1 | CC(C)N1Cc2c(ccc(Cl)c2-n2c(=O)cc(C(F)(F)F)n(C)c2=O)C1=O [Compound 1] | 90 | 70 | 100 | 100 | 80 | 90 | 100 | 90 | 75 | 100 | 60 | 80 | 95 | 70 | 50 | 70 | 95 | 100 | 90 | 80
2 | CC(C)N1Cc2c(-n3c(=O)cc(C(F)(F)F)n(C)c3=O)ccc(Cl)c2C1=O [Compound 3, 3-[7-chloro-2-(1-methylethyl)isoindolin-1-on-4-yl]-1-methyl-6-trifluoromethyl-2,4(1H,3H)-pyrimidinedione] | 100 | 100 | 100 | 100 | 100 | 100 | 100 | 100 | 100 | 100 | 100 | 100 | 100 | 100 | 100 | 100 | 95 | 100 | 100 | 100
3 | CC(C)N1Cc2c(c(Cl)cc(Cl)c2-n2c(=O)cc(C(F)(F)F)n(C)c2=O)C1=O [Compound 4] | 100 | 100 | 100 | 100 | 100 | 100 | 100 | 100 | 100 | 100 | 100 | 100 | 100 | 100 | 100 | 100 | 100 | 100 | 100 | 100
4 | CCN1Cc2c(c(Cl)cc(Cl)c2-n2c(=O)cc(C(F)(F)F)n(C)c2=O)C1=O [Compound 5] | 100 | 100 | 100 | 100 | 100 | 100 | 100 | 100 | 100 | 100 | 100 | 100 | 100 | 100 | 100 | 100 | 95 | 100 | 100 | 100
5 | Cn1c(C(F)(F)F)cc(=O)n(-c2c(Cl)cc(Cl)c3c2CN(C(C)(C)C)C3=O)c1=O [Compound 6] | 100 | 95 | 100 | 100 | 100 | 100 | 100 | 100 | 100 | 100 | 100 | 100 | 100 | 80 | 100 | 100 | 90 | 100 | 100 | 100
6 | Cn1c(C(F)(F)F)cc(=O)n(-c2ccc(Cl)c3c2CN(Cc2ccc(Cl)cc2)C3=O)c1=O [Compound 24] | 10 | 30 | 30 | 100 | 70 | 70 | 100 |  | 70 | 40 | 80 | 30 | 50 | 30 | 100 | 10 | 60 | 95 | 70 | 
